# Experimental data from ChEMBL document CHEMBL1641545 (Bioorg Med Chem Lett, 2011).
# How the values were obtained:
# [1] = target: T1, Kappa-type opioid receptor (Homo sapiens, UniProt P41145); assay: Displacement of [3H]diprenorphine from kappa opioid receptor expressed in HEK293 cells relative to salvinorin A; assay type: cell-based; design: concentration or dose not given beside the values
# [2] = target: T2, Delta-type opioid receptor (Homo sapiens, UniProt P41143); assay: Displacement of [3H]DADLE from delta opioid receptor expressed in HEK293 cells relative to DADLE; assay type: cell-based; design: concentration or dose not given beside the values
# [3] = target: T1, Kappa-type opioid receptor; assay: Displacement of [3H]U69593 from kappa opioid receptor expressed in HEK293 cells relative to salvinorin A; assay type: cell-based; design: concentration or dose not given beside the values
# Mu-type opioid receptor [4] = target: T3, Mu-type opioid receptor (Homo sapiens, UniProt P35372); assay: Displacement of [3H]DAMGO from mu opioid receptor expressed in HEK293 cells relative to DAMGO; assay type: cell-based; design: concentration or dose not given beside the values
# [5] = target: T1, Kappa-type opioid receptor; assay: Agonist activity at kappa opioid receptor expressed in HEK293 cells by [35S]GTPgammaS binding assay; assay type: functional, cell-based
# [6] = target: T2, Delta-type opioid receptor; assay: Displacement of [3H]DADLE from delta opioid receptor expressed in HEK293 cells; assay type: cell-based
# [7] = target: T1, Kappa-type opioid receptor; assay: Displacement of [3H]U69593 from kappa opioid receptor expressed in HEK293 cells; assay type: cell-based
# [8] = Selectivity ratio of Ki for delta opioid receptor to Ki for kappa opioid receptor
# [9] = Selectivity ratio of Ki for mu opioid receptor to Ki for kappa opioid receptor
# Mu-type opioid receptor [10] = target: T3, Mu-type opioid receptor; assay: Displacement of [3H]DAMGO from mu opioid receptor expressed in HEK293 cells; assay type: cell-based
# [11] = target: T1, Kappa-type opioid receptor; assay: Agonist activity at kappa opioid receptor expressed in HEK293 cells by [35S]GTPgammaS binding assay relative to salvinorin A; assay type: functional, cell-based
# T2 sequence (P41143 whole entry): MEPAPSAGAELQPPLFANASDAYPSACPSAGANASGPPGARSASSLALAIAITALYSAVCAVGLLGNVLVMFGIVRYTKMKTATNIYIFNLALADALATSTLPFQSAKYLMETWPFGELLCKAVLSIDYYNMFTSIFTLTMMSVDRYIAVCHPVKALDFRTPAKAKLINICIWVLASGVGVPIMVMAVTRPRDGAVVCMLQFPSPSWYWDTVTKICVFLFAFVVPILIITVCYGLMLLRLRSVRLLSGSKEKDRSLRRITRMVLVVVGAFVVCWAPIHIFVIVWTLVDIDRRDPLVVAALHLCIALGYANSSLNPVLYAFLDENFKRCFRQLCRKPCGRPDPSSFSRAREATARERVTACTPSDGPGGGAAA
# T1 sequence (P41145 whole entry): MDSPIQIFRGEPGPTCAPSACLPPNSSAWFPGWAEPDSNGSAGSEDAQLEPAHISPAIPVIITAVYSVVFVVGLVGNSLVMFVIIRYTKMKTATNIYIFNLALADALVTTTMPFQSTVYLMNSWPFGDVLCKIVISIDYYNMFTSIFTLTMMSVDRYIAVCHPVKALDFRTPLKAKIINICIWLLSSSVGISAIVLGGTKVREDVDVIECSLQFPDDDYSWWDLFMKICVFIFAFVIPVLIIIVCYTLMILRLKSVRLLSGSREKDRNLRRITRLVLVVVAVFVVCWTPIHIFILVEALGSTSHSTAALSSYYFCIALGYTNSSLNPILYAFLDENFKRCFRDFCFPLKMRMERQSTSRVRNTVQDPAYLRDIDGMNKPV
# T3 sequence (P35372 whole entry): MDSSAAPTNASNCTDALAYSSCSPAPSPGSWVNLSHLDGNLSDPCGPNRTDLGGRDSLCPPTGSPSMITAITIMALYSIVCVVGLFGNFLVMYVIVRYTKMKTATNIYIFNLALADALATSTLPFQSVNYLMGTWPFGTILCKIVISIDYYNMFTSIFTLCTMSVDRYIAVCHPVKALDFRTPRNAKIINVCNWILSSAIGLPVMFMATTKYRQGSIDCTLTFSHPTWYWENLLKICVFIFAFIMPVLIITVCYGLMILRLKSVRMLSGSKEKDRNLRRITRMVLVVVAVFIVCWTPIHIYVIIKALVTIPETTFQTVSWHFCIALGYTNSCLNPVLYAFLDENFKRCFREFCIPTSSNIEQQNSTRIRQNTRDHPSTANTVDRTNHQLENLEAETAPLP
SMILES,Activity [1],Activity [2],Activity [3],Activity (Mu-type opioid receptor [4]),EC50 [5],Emax [5],Ki [6],Ki [7],Ratio Ki [8],Ratio Ki [9],Ki (Mu-type opioid receptor [10]),Emax [11]
COC(=O)[C@@H]1C[C@H](OC(=O)CNC(=O)OCC2c3ccccc3-c3ccccc32)C(=O)[C@H]2[C@@]1(C)CC[C@H]1C(=O)O[C@H](c3ccoc3)C[C@]21C,10%,16%,4%,20%,–,–,–,–,–,–,–,–
COC(=O)[C@@H]1C[C@H](OC(=O)[C@@H](NC(=O)OCC2c3ccccc3-c3ccccc32)[C@H](C)OC(C)(C)C)C(=O)[C@H]2[C@@]1(C)CC[C@H]1C(=O)O[C@H](c3ccoc3)C[C@]21C,12%,8%,28%,18%,–,–,–,–,–,–,–,–
COC(=O)[C@@H]1C[C@H](OC(=O)CCCN)C(=O)[C@H]2[C@@]1(C)CC[C@H]1C(=O)O[C@H](c3ccoc3)C[C@]21C,0%,28%,48%,1%,–,–,–,–,–,–,–,–
COC(=O)[C@@H]1C[C@H](OC(=O)CCCNC(=O)OCC2c3ccccc3-c3ccccc32)C(=O)[C@H]2[C@@]1(C)CC[C@H]1C(=O)O[C@H](c3ccoc3)C[C@]21C,0%,24%,10%,27%,–,–,–,–,–,–,–,–
COC(=O)[C@@H]1C[C@H](OC(=O)[C@@H](N)Cc2ccccc2)C(=O)[C@H]2[C@@]1(C)CC[C@H]1C(=O)O[C@H](c3ccoc3)C[C@]21C,0%,13%,19%,-6%,–,–,–,–,–,–,–,–
Oc1ccc2c3c1O[C@H]1c4[nH]c5ccccc5c4C[C@@]4(O)[C@@H](C2)N(CC2CC2)CC[C@]314,–,100%,–,–,–,–,–,–,–,–,–,–
COC(=O)[C@@H]1C[C@H](OC(=O)[C@@H](N)[C@H](C)OC(C)(C)C)C(=O)[C@H]2[C@@]1(C)CC[C@H]1C(=O)O[C@H](c3ccoc3)C[C@]21C,0%,11%,6%,2%,–,–,–,–,–,–,–,–
COC(=O)[C@@H]1C[C@H](OC(=O)[C@@H](N)C(C)C)C(=O)[C@H]2[C@@]1(C)CC[C@H]1C(=O)O[C@H](c3ccoc3)C[C@]21C,91%,48%,103%,5%,0.213 µM,828%,> 10 µM,0.042 µM,> 238,> 238,> 10 µM,118%
COC(=O)[C@@H]1C[C@H](OC(=O)[C@H](Cc2ccccc2)NC(=O)OCC2c3ccccc3-c3ccccc32)C(=O)[C@H]2[C@@]1(C)CC[C@H]1C(=O)O[C@H](c3ccoc3)C[C@]21C,34%,3%,0%,0.5%,–,–,–,–,–,–,–,–
COC(=O)[C@@H]1C[C@H](OC(=O)[C@H](C)NC(=O)OCC2c3ccccc3-c3ccccc32)C(=O)[C@H]2[C@@]1(C)CC[C@H]1C(=O)O[C@H](c3ccoc3)C[C@]21C,0%,15%,21%,24%,–,–,–,–,–,–,–,–
COC(=O)[C@@H]1C[C@H](OC(=O)[C@@H](NC(=O)OCC2c3ccccc3-c3ccccc32)C(C)C)C(=O)[C@H]2[C@@]1(C)CC[C@H]1C(=O)O[C@H](c3ccoc3)C[C@]21C,0%,22%,39%,15%,–,–,–,–,–,–,–,–
COC(=O)[C@@H]1C[C@H](OC(=O)CN)C(=O)[C@H]2[C@@]1(C)CC[C@H]1C(=O)O[C@H](c3ccoc3)C[C@]21C,0%,17%,41%,-5%,–,–,–,–,–,–,–,–
COC(=O)[C@@H]1C[C@H](OC(=O)[C@H](C)N)C(=O)[C@H]2[C@@]1(C)CC[C@H]1C(=O)O[C@H](c3ccoc3)C[C@]21C,0%,18%,82%,-1.6%,–,–,> 10 µM,3.78 µM,> 2.64,> 2.64,> 10 µM,–
